In one assay the target is IDO1 in HeLa cells (Homo sapiens (Human), UniProt P14902). The assay can be described thus: HeLa cell based IDO1 assay (IFNγ-induced, KYN in supernatant). The procedure: HeLa cells were obtained from ATCC and maintained in DMEM supplemented with sodium bicarbonate (2.1 g/L), HEPES (4.1 g/L), L-glutamine (2 mM), non-essential amino acid (84 mg/L) and fetal bovine serum (10% FBS) and maintained at 95% humidity and 5% CO2 in a 37° C. incubator. Unless otherwise stated, all materials were procured from Sigma. Upon incubation with gamma-interferon (IFNγ ), HeLa cells express IDO1, which catalyzes the formation of N-formyl kynurenine from tryptophan present in growth medium. The assay was performed as follows:
Cells were plated in medium (300 μL) at a density of 0.1 million per well of a 48 well plate and hIDO1 was induced by overnight treatment with IFNγ (50 ng/mL) (Peprotech, USA). The following day, cells were washed to remove IFNγ and were incubated with specific concentrations of test compounds (typically 10 μM to 1 nM, final volume 300 μL) in Hanks Balanced Salt Solution (HBSS) containing 80 μM L-tryptophan. Following incubation, supernatant (150 μL) was transferred to a 96 well plate into which 30%TCA (304) was added and the contents further incubated at 65° C. for 15 min to fully convert N-formylkynurenine to kynurenine. The reaction mixture was then centrifuged to remove sediments and the KYN in the supernatant was estimated by UV-visible absorption spectroscopy at 360 nm using a Waters HPLC system fitted with a C-18 column. (Xiangdong Liu et al. Blood 2010, Vol-117, 3520-30; Sono described above).
(§1) Percent inhibition at each concentration of test compounds was determined by estimating the decrease in KYN with reference to the reaction control with 1% DMSO vehicle. Data were analyzed using nonlinear regression to generate IC50 values using Graph Pad Prism® 5.

Assay [1] deals with Human TDO (hTDO)-transfected CHO-K1 cells (Homo sapiens (Human), UniProt P48775). The assay can be described thus: CHO-K1 cell based TDO assay. Conditions: hTDO cellular assay. The procedure: Human TDO (hTDO)-transfected CHO-K1 cells were used to identify test compounds that inhibit TDO activity and reduce Kynurenine production. CHO-K1 cells (ATCC) were cultured in DMEM supplemented with sodium bicarbonate (2.1 g/L), HEPES (4.1 g/L), L-glutamine (2 mM), non-essential amino acid (84 mg/L) and fetal bovine serum (10%) and maintained at 95% humidity and 5% CO2 in a 37° C. incubator. The TDO gene (TDO2) (Accession number NM_005651.1) was purchased from Origene (USA) and stably expressed in CHO-Kl cells using the expression vector pcDNA4/Myc-HisB Hygro (Life Technologies, USA). TDO-expressing clones were identified based on the kynurenine production by the cells. Expanded clones were used for assay as described below. Unless otherwise stated, all materials were procured from Sigma.
hTDO transfected CHO-K1 cells (0.05 million/well) were seeded in a 96-well plate and maintained overnight in DMEM containing 10% FBS (200 μL) at 95% humidity and 5% CO2 in a 37° C. incubator. The following day, cells were washed and incubated with test compounds (typically 31 μM to 10 nM, final volume 150 μL) in Hanks Balanced Salt Solution (HBSS) containing 80 μM L-tryptophan for 2 hours. Supernatant (150 μL) from the cells was treated with 30% TCA ([…]) to precipitate proteins. Supernatants were further incubated at 65° C. for 15 min to convert N-formylkynurenine to kynurenine. KYN in the supernatant was measured by LC/MS/MS using an API4000 mass spectrometer (Applied Biosystems) coupled to a Shimadzu Prominence LC system fitted with a C18 column.
Percent inhibition of the test compounds was determined by measuring the decrease in KYN as compared to the reaction control (DMSO vehicle). IC50 values were calculated using Graph Pad Prism® 5 as described above.

Assay [2] deals with Human indoleamine 2,3-dioxygenase1 (hIDO1) (Homo sapiens (Human), UniProt P14902). The assay can be described thus: In-vitro IDO1 enzyme assay (conversion of L-tryptophan to KYN). It counts as biochemical. Particulars: read-out: IC50 (IDO1) Enz.
Description: Human indoleamine 2,3-dioxygenasel (hIDO1) catalyzes the oxidative cleavage of the pyrrole ring of the indole nucleus of tryptophan to yield N-formylkynurenine which can be converted to kynurenine (KYN) by deformylation. hIDO1 with an N-terminal His tag, expressed and purified from E. coli cells was procured from either Enzo LifeScienccs, NY, USA). Unless otherwise stated, all materials were procured from Sigma Aldrich, Mo., USA.
The assay monitoring the conversion of L-tryptophan to KYN was carried out as follows. hIDO1 (10 nM) was incubated with tryptophan (30 μM) in the presence of ascorbic acid (20 mM), methylene blue (10 μM) and catalase (100 μg/mL) in potassium phosphate buffer (50 mM; pH 6.5) at 37C for 30 min. The reaction was terminated with 30% trichloroacetic acid (TCA) and further incubated at 65C for 15 min to fully convert N-formylkynurenine to KYN. The reaction mixture was then centrifuged to remove sediments and the KYN in the supernatant was estimated by UV-visible absorption spectroscopy at 360 nm using a Waters HPLC system fitted with a C-18 column or by LC/MS/MS. See, Sono, 1980, J. Biol. Chem., 255:1339-1345, which is herein incorporated by reference.
as §1

Sequence of Human indoleamine 2,3-dioxygenase1 (hIDO1) (P14902 whole entry): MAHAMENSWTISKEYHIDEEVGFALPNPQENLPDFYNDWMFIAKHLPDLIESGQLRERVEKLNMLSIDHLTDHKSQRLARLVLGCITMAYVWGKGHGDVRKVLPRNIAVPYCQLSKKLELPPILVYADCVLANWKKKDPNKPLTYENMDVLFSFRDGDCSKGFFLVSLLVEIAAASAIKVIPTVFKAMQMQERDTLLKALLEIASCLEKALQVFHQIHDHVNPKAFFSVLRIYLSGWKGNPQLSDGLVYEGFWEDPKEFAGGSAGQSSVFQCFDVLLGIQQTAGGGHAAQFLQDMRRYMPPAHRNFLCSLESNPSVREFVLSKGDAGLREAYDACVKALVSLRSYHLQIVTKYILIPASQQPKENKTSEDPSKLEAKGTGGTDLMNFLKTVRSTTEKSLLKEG
Sequence of IDO1 in HeLa cells (P14902 whole entry): as above
Sequence of Human TDO (hTDO)-transfected CHO-K1 cells (P48775 whole entry): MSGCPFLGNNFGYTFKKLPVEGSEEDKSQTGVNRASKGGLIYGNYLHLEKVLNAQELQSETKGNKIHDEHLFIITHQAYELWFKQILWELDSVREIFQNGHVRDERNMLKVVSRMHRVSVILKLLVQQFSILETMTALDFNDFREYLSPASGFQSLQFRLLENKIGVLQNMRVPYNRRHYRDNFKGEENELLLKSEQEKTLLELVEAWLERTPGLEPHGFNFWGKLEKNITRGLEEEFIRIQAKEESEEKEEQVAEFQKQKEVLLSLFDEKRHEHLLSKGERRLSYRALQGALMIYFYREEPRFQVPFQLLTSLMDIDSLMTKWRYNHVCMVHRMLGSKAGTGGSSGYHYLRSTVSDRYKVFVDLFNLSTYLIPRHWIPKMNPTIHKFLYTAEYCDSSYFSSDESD

Turning to “2-Amino-3-((3-chloro-4-fluorophenyl)amino)furo[2,3-c]pyridine-7-carbonitrile [Compound 106]”, the 50% inhibitory concentration (IC50) (usually the concentration that inhibits the measured activity by half) is greater than 1000 nM against IDO1 in HeLa cells, 500 to 2000 nM in assay [1] and greater than 1000 nM in assay [2].

As to `Nc1oc2cnccc2c1Nc1ccccc1` [Compound 3, N^3-Phenylfuro[2,3-c]pyridine-2,3-diamine], the IC50 is less than 200 nM against IDO1 in HeLa cells, less than 500 nM in assay [1] and 200 to 1000 nM in assay [2].

Take `Nc1oc2cnccc2c1Nc1ccccc1Cl` [Compound 4, N^3-(2-Chlorophenyl)furo[2,3-c]pyridine-2,3-diamine]: the IC50 was less than 200 nM against IDO1 in HeLa cells, greater than 2000 nM in assay [1] and greater than 1000 nM in assay [2].

Regarding `Nc1oc2cnccc2c1Nc1ccc(F)cc1` [Compound 5, N^3-(4-Fluorophenyl)furo[2,3-c]pyridine-2,3-diamine], the half-maximal inhibitory concentration (IC50) on IDO1 in HeLa cells was less than 200 nM; in assay [1], 500 to 2000 nM; in assay [2], 200 to 1000 nM.

Take `Nc1oc2cnccc2c1Nc1cccc(Cl)c1` [Compound 8, N^3-(3-Chlorophenyl)furo[2,3-c]pyridine-2,3-diamine]: the IC50 was less than 200 nM against IDO1 in HeLa cells, 500 to 2000 nM in assay [1] and 200 to 1000 nM in assay [2].

For `COc1cc(Nc2c(N)oc3cnccc23)ccc1Cl` [Compound 9, N^3-(4-Chloro-3-methoxyphenyl)furo[2,3-c]pyridine-2,3-diamine], the concentration for half-maximal inhibition (IC50) against IDO1 in HeLa cells was 200 to 1000 nM; in assay [1], 500 to 2000 nM; in assay [2] it was greater than 1000 nM.

As to `Nc1oc2cnccc2c1Nc1ccc(F)cc1Br` [Compound 10, N^3-(2-Bromo-4-fluorophenyl)furo[2,3-c]pyridine-2,3-diamine], the 50% inhibitory concentration (IC50) against IDO1 in HeLa cells is 200 to 1000 nM; in assay [1], greater than 2000 nM; in assay [2] it was greater than 1000 nM.

`Cc1ccc(Nc2c(N)oc3cnccc23)cc1C` [Compound 13, N^3-(3,4-Dimethylphenyl)furo[2,3-c]pyridine-2,3-diamine]: the IC50 was less than 200 nM against IDO1 in HeLa cells, 500 to 2000 nM in assay [1] and 200 to 1000 nM in assay [2].

On to `Cc1cc(C)cc(Nc2c(N)oc3cnccc23)c1` [Compound 14, N^3-(3,5-Dimethylphenyl)furo[2,3-c]pyridine-2,3-diamine], for which the figures for the IC50 (at IDO1 in HeLa cells; in assay [1]; in assay [2]) were less than 200 nM, 500 to 2000 nM and 200 to 1000 nM, respectively.

Consider `Nc1oc2cnccc2c1Nc1ccc(Cl)c(Cl)c1` [Compound 15, N^3-(3,4-Dichlorophenyl)furo[2,3-c]pyridine-2,3-diamine], for which the IC50 against IDO1 in HeLa cells was in the range of 200 to 1000 nM; in assay [1], 500 to 2000 nM; in assay [2] it was 200 to 1000 nM.

`Nc1oc2cnccc2c1Nc1ccc(Br)cc1` [Compound 16, N^3-(4-Bromophenyl)furo[2,3-c]pyridine-2,3-diamine]: the IC50 against IDO1 in HeLa cells is 200 to 1000 nM; in assay [1] it was 500 to 2000 nM; in assay [2], greater than 1000 nM.

As to `CCc1cccc(Nc2c(N)oc3cnccc23)c1` [Compound 19, N^3-(3-Ethylphenyl)furo[2,3-c]pyridine-2,3-diamine], the half-inhibitory concentration (IC50) against IDO1 in HeLa cells is 200 to 1000 nM; in assay [1] it was greater than 2000 nM; in assay [2], 200 to 1000 nM.

`Cc1cccc(Nc2c(N)oc3cnccc23)c1` [Compound 48, N^3-(m-tolyl)Furo[2,3-c]pyridine-2,3-diamine]: the IC50 (against IDO1 in HeLa cells; in assay [2]) was less than 200 nM in each case.

On to `Nc1oc2c(Cc3ccccc3)nccc2c1Nc1ccc(F)c(Cl)c1` [Compound 86, 7-Benzyl-N^3-(3-chloro-4-fluorophenyl)furo[2,3-c]pyridine-2,3-diamine], for which the IC50 (against IDO1 in HeLa cells; in assay [2]) was less than 200 nM throughout.

Consider `Nc1oc2c(-c3ccc(Cl)cc3)nccc2c1Nc1ccc(F)c(Cl)c1` [Compound 91, N^3-(3-Chloro-4-fluorophenyl)-7-(4-chlorophenyl)furo[2,3-c]pyridine-2,3-diamine], for which the IC50 (against IDO1 in HeLa cells; in assay [2]) was less than 200 nM in each case.

Consider `C#Cc1cccc(Nc2c(N)oc3c(-c4ccccc4)nccc23)c1` [Compound 92, N^3-(3-Ethynylphenyl)-7-phenylfuro[2,3-c]pyridine-2,3-diamine], for which the IC50 (on IDO1 in HeLa cells; in assay [2]) was less than 200 nM throughout.

`COc1ccc(-c2nccc3c(Nc4ccc(F)c(Cl)c4)c(N)oc23)cc1` [Compound 101, N^3-(3-Chloro-4-fluorophenyl)-7-(4-methoxyphenyl)furo[2,3-c]pyridine-2,3-diamine]: the IC50 (at IDO1 in HeLa cells; in assay [2]) was less than 200 nM each time.

As to `N#Cc1ccc2c(Nc3ccc(F)c(Cl)c3)c(N)oc2c1` [Compound 112, 2-Amino-3-((3-chloro-4-fluorophenyl)amino)benzofuran-6-carbonitrile], the IC50 (at IDO1 in HeLa cells; in assay [2]) was less than 200 nM each time.

For the molecule `COCCNC(=O)c1ccc(-c2nccc3c(Nc4ccc(F)c(Cl)c4)c(N)oc23)cc1` [Compound 169, 4-(2-Amino-3-((3-chloro-4-fluorophenyl)amino)furo[2,3-c]pyridin-7-yl)-N-(2-methoxyethyl)benzamide], the half-inhibitory concentration (IC50) (against IDO1 in HeLa cells; in assay [2]) was less than 200 nM in each case.

In the case of `Nc1oc2c(-c3ccc(F)c(F)c3)nccc2c1Nc1ccc(F)c(Cl)c1` [Compound 170, N^3-(3-chloro-4-fluorophenyl)-7-(3,4-difluorophenyl)furo[2,3-c]pyridine-2,3-diamine], the half-maximal inhibitory concentration (IC50) (against IDO1 in HeLa cells; in assay [2]) was less than 200 nM each time.

For `CCOC(=O)Nc1sc2ccccc2c1Nc1ccc(F)c(Cl)c1` [Compound 209, Ethyl (3-((3-chloro-4-fluorophenyl)amino)benzo[b]thiophen-2-yl)carbamate], the IC50 is greater than 2000 nM in assay [1] and greater than 1000 nM in assay [2].

On to `N#Cc1ccc(-c2cccc3c(Nc4ccc(F)c(Cl)c4)c(N)sc23)cc1` [Compound 212, 4-(2-Amino-3-((3-chloro-4-fluorophenyl)amino)benzo[b]thiophen-7-yl)benzonitrile], for which the half-maximal inhibitory concentration (IC50) (against IDO1 in HeLa cells; in assay [2]) was less than 200 nM each time.

Consider `Cc1cc(-c2nccc3c(Nc4ccccc4N4CCCCC4)c(N)oc23)ccn1` [Compound 242, 7-(2-Methylpyridin-4-yl)-N^3-(2-(piperidin-1-yl)phenyl)furo[2,3-c]pyridine-2,3-diamine], for which the IC50 in assay [1] was greater than 2000 nM; in assay [2] it was greater than 1000 nM.

As for `Cc1cc(-c2cccc3c(Nc4ccccc4)c(N)sc23)ccn1` [Compound 265, 7-(2-Methylpyridin-4-yl)-N^3-phenylbenzo[b]thiophene-2,3-diamine], the IC50 was 500 to 2000 nM in assay [1] and less than 200 nM in assay [2].

Take `Cc1cc(-c2cccc3c(Nc4ccc(F)cc4)c(N)sc23)ccn1` [Compound 266, N^3-(4-Fluorophenyl)-7-(2-methylpyridin-4-yl)benzo[b]thiophene-2,3-diamine]: the IC50 was 500 to 2000 nM in assay [1] and less than 200 nM in assay [2].

These data come from patent publication US10294212B2 (CURADEV PHARMA PRIVATE LTD., priority 2013, dated 2019).
